The values that follow come from US10829501B2 (BRISTOL-MYERS SQUIBB COMPANY, priority 2016, dated 2020).

pIC50: −log10 of the molar value. Where a name gives a salt, the structure may show the parent alone.

Broadly, the pIC50 is the IC50 on a negative log10 scale, so that one unit is a factor of ten.

The first test deals with ROCK2 (Homo sapiens, UniProt O75116). In words: ROCK2 kinase inhibition assay (LABCHIP 3000 Reader, FITC peptide substrate).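 Further: rho kinase reaction read by separating phosphorylated from unphosphorylated peptide on chip, with inhibition of kinase activity computed per concentration across a dose-response series.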
Chain of ROCK2 (O75116 whole entry, species assumed): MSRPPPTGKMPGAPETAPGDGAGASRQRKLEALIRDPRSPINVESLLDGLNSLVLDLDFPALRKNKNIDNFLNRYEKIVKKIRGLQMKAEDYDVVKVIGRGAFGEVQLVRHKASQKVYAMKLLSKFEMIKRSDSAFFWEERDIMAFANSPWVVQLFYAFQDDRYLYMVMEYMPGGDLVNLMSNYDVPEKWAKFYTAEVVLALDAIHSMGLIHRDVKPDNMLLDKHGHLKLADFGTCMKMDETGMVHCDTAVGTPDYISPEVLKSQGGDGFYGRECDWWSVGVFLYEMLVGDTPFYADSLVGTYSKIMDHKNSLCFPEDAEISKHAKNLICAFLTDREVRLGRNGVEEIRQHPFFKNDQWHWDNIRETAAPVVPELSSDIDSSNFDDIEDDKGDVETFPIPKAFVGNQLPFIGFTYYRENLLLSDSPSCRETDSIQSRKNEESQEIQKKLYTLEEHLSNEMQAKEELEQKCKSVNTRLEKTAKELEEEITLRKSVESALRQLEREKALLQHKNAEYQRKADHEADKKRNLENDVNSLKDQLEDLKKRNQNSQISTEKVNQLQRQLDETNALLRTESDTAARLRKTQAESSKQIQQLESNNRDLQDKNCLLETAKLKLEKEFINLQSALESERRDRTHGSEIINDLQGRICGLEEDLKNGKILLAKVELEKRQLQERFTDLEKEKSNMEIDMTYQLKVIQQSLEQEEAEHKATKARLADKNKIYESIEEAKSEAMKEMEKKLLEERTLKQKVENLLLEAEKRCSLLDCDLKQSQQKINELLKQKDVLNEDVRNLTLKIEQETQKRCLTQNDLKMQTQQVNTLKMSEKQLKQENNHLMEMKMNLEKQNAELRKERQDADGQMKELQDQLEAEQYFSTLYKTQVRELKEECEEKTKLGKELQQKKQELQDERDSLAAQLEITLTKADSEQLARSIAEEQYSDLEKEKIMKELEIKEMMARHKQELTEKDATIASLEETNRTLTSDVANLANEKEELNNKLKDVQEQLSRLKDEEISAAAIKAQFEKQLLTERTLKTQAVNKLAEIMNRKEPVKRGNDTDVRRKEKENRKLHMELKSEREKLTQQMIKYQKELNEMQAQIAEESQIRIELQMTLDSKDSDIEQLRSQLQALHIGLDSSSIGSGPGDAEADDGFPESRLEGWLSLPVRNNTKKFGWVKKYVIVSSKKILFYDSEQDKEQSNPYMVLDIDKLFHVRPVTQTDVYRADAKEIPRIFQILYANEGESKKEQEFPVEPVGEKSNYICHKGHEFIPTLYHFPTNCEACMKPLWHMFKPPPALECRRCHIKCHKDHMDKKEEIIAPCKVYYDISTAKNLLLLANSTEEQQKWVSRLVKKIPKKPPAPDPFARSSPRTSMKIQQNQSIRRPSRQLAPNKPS
Conditions: not given
`Cn1nc(C(C)(C)C)cc1C(=O)N[C@H]1CC2(C1)C[C@H](Oc1ncccc1C(N)=O)C2` (stereo partly drawn) [Example 77, 2-((aR)-6-(3-(tert-butyl)-1-methyl-1H-pyraole-5-carboxamido)spiro[3.3]heptan-2-yl)oxy) nicotinamide, trifluoroacetate] gave a pIC50 of 7.30 to 8.30.

For `NC(=O)c1cccnc1O[C@H]1CC2(C[C@H](NC(=O)c3cnn4c(C5CC5)c(OC(CF)CF)ccc34)C2)C1` (stereo partly drawn) [Example 341, N-((aR)-6-((3-carbamoylpyridin-2-yl)oxy)spiro[3.3]heptan-2-yl)-7-cyclopropyl-6-((1,3-difluoropropan-2-yl)oxy)pyrazolo[1,5-a]pyridine-3-carboxamide], the pIC50 was above 8.30. On the same count and under the same terms, then `COc1ccc2c(c1)CCN2C(=O)NC1CC2(C1)CC(Oc1ncccc1C(N)=O)C2` [Example 17, N-((aR)-6-((3-carbamoylpyridin-2-yl)oxy)spiro[3.3]heptan-2-yl)-5-methoxyindoline-1-carboxamide], with 6.60 to 7.30. Consider `C[C@@H](O)COc1ccc2c(C(=O)N[C@H]3CC4(C3)C[C@H](Oc3ncccc3C(N)=O)C4)cnn2c1` (stereo partly drawn) [Example 330, N-((aR)-6-((3-carbamoylpyridin-2-yl)oxy)spiro[3.3]heptan-2-yl)-6-((R)-2-hydroxypropoxy)pyrazolo[1,5-a]pyridine-3-carboxamide], for which the pIC50 was 7.30 to 8.30. Same read-out and setting: with `NC(=O)c1cccnc1O[C@H]1CC2(C[C@H](NC(=O)c3cnn4c(C5CC5)c(OCCOCC(F)(F)F)ccc34)C2)C1` (stereo partly drawn) [Example 340, N-((aR)-6-((3-carbamoylpyridin-2-yl)oxy)spiro[3.3]heptan-2-yl)-7-cyclopropyl-6-(2-(2,2,2-trifluoroethoxy)ethoxy)pyrazolo[1,5-a]pyridine-3-carboxamide] the figure was 7.30 to 8.30; with `NC(=O)c1cccnc1O[C@H]1CC2(C[C@H](NC(=O)c3cnc4cc(OCC(F)F)ccn34)C2)C1` (stereo partly drawn) [Example 331, N-((aR)-6-((3-carbamoylpyridin-2-yl)oxy)spiro[3.3]heptan-2-yl)-7-(2,2-difluoroethoxy)imidazo[1,2-a]pyridine-3-carboxamide], 7.30 to 8.30. `CC(C)(O)COc1ccc2c(C(=O)NC3CC4(C3)CC(Oc3cc(-c5ccc(C(N)=O)c(F)c5)ccc3C(N)=O)C4)cnn2c1` (centres unmarked) [Example 280, 3-fluoro-3′-((6-(6-(2-hydroxy-2-methylpropoxy)pyrazolo[1,5-a]pyridine-3-carboxamido)spiro[3.3]heptan-2-yl)oxy)-[1,1′-biphenyl]-4,4′-dicarboxamide]: the pIC50 was 7.30 to 8.30.

In the case of `NC(=O)c1cccnc1O[C@H]1CC2(C[C@H](NC(=O)c3cnc4c(C(F)(F)F)cccn34)C2)C1` (stereo partly drawn) [Example 346, N-((aR)-6-((3-carbamoylpyridin-2-yl)oxy)spiro[3.3]heptan-2-yl)-8-(trifluoromethyl)imidazo[1,2-a]pyridine-3-carboxamide], the pIC50 is 6.60 to 7.30. Consider `NC(=O)c1cccnc1O[C@H]1CC2(C[C@H](NC(=O)c3cnn4cc(OCC(F)F)ccc34)C2)C1` (stereo partly drawn) [Example 313, N-((aR)-6-((3-carbamoylpyridin-2-yl)oxy)spiro[3.3]heptan-2-yl)-6-(2,2-difluoroethoxy)pyrazolo[1,5-a]pyridine-3-carboxamide], for which the pIC50 is 7.30 to 8.30.

`CNC(=O)c1cc(-c2ccc(C(N)=O)c(OC3CC4(CC(NC(=O)c5cnn6cc(OCC(C)(C)O)ccc56)C4)C3)c2)ccc1F` (centres unmarked) [Example 295, 4-fluoro-3′-((6-(6-(2-hydroxy-2-methylpropoxy)pyrazolo[1,5-a]pyridine-3-carboxamido)spiro[3.3]heptan-2-yl)oxy)-N3-methyl-[1,1′-biphenyl]-3,4′-dicarboxamide] showed a pIC50 of 7.30 to 8.30. Take `NC(=O)c1cccnc1O[C@H]1CC2(C[C@H](NC(=O)c3cnn4cc(OCC[C@H]5COC(=O)N5)ccc34)C2)C1` (stereo partly drawn) [Example 126, N-((aR)-6-((3-carbamoylpyridin-2-yl)oxy)spiro[3.3]heptan-2-yl)-6-(2-((S)-2-oxoxazolidin-4-yl)ethoxy) pyrazolo[1,5-a]pyridine-3-carboxamdie, trifluoroacetate]: the pIC50 is above 8.30.

On to `CC(C)(O)COc1ccc2c(C(=O)NC3CC4(C3)CC(Oc3cc(-c5cccc(S(N)(=O)=O)c5)ccc3C(N)=O)C4)cnn2c1` (centres unmarked) [Example 298, N-(6-((4-carbamoyl-3′-sulfamoyl-[1,1′-biphenyl]-3-yl)oxy)spiro[3.3]heptan-2-yl)-6-(2-hydroxy-2-methylpropoxy)pyrazolo[1,5-a]pyridine-3-carboxamide], for which the pIC50 was above 8.30. Turning to `Cc1nc(-c2ccccn2)sc1C(=O)N[C@H]1CC2(C1)C[C@H](Oc1ncccc1C(N)=O)C2` (stereo partly drawn) [Example 88, N-((aR)-6-((3-carbamoyl-pyridin-2-yl)oxy)spiro[3.3]heptan-2-yl)-4-methyl-2-(pyridin-2-yl)thiazole-5-carboxamide, trifluoroacetate], the pIC50 is 5.60 to 6.60. Same read-out and setting: with `Cn1nccc1-c1cc(C#N)cc(C(=O)N[C@H]2CC3(C2)C[C@H](Oc2ncccc2C(N)=O)C3)c1` (stereo partly drawn) [Example 197, 2-(((aR)-6-(3-cyano-5-(1-methyl-1H-pyrazol-5-yl)benzamido)spiro[3.3]heptan-2-yl)oxy)nicotinamide] the figure was 7.30 to 8.30; with `CC(C)(O)COc1ccc2c(C(=O)NC3CC4(C3)CC(Oc3cc(/C=C/CCO)ccc3C(N)=O)C4)cnn2c1` (centres unmarked) [Example 290, (E)-N-(6-(2-carbamoyl-5-(4-hydroxybut-1-en-1-yl)phenoxy)spiro[3.3]heptan-2-yl)-6-(2-hydroxy-2-methylpropoxy)pyrazolo[1,5-a]pyridine-3-carboxamide], 7.30 to 8.30; with `CC(C)(O)COc1ccc2c(C(=O)NC3CC4(C3)CC(Oc3cc(CCCN)ccc3C(N)=O)C4)cnn2c1` (centres unmarked) [Example 300, N-(6-(5-(3-aminopropyl)-2-carbamoylphenoxy)spiro[3.3]heptan-2-yl)-6-(2-hydroxy-2-methylpropoxy)pyrazolo[1,5-a]pyridine-3-carboxamide], above 8.30.

The test is the same for the next values; noted with them: read-out: ROCK2 Activity (ROCK2 IC50); 5 μM ATP, 1.5 μM peptide substrate, pH 7.5.
With `Cn1cc(-c2cc(C(=O)NC3CC4(C3)CC(Oc3ncccc3C(N)=O)C4)cc(C(F)(F)F)c2)cn1` [Example 428, 2-(((aR)-6-(3-(1-methyl-1H-pyrazol-4-yl)-5-(trifluoromethyl)benzamido)spiro[3.3]heptan-2-yl)oxy)nicotinamide], the negative-log IC50 (pIC50) was above 8.30.

With `NC(=O)c1cccnc1OC1CC2(CC(NC(=O)c3nc(C(F)F)n4cc(N5CCOCC5)ccc34)C2)C1` [Example 440, N-((aR)-6-((3-carbamoylpyridin-2-yl)oxy)spiro[3.3]heptan-2-yl)-3-(difluoromethyl)-6-morpholinoimidazo[1,5-a]pyridine-1-carboxamide], the pIC50 was above 8.30.

Turning to `CC(C)(O)COc1ccc2c(C(=O)NC3CC4(C3)CC(Oc3ncccc3C(N)=O)C4)nc(C(F)(F)F)n2c1` [Example 434, N-((aR)-6-((3-carbamoylpyridin-2-yl)oxy)spiro[3.3]heptan-2-yl)-6-(2-hydroxy-2-methylpropoxy)-3-(trifluoromethyl)imidazo[1,5-a]pyridine-1-carboxamide], the pIC50 is 7.30 to 8.30. As to `Cn1cc(-c2ccc3c(C(=O)NC4CC5(C4)CC(Oc4ncccc4C(N)=O)C5)nc(C(F)F)n3c2)cn1` [Example 439, N-((aR)-6-((3-carbamoylpyridin-2-yl)oxy)spiro[3.3]heptan-2-yl)-3-(difluoromethyl)-6-(1-methyl-1H-pyrazol-4-yl)imidazo[1,5-a]pyridine-1-carboxamide], the pIC50 was above 8.30.
